In US10501497B2, “Cyclic polypeptides, method for obtaining them and the therapeutic use thereof” (AXOLTIS PHARMA, priority 2015, dated 2019):
In brackets after ≈: the same amount, converted by molar mass. Where two headings read alike, the source gives them in different places. Bridge positions count the residues as written; N and C are the ends. Peptide text beside a SMILES is read from it.

Legend:
neprylysine = neprylysine (Homo sapiens, UniProt P08473); test: Enzymatic digestion with neprylysine analysed by LC/MS/MS; format: in vitro ADME; settings: for Percentage of digestion / metabolised at 0.5 h: neprylysine; for Area under the curve in the presence of enzyme: neprylysine diluted by a tenth in water; for Area under the control curve (no enzyme): LC/MS/MS; for metabolised at 0.5 h: read-out: Percentage of digestion
Experimental: A so-called “control” sample without enzyme and effected in parallel was performed to establish an analytical reference for each parameter explored. The polypeptides are diluted in deoxygenated water to maintain the stability of both forms over time. Digestions were analyzed by the LC/MS/MS mass spectrometry technique. The percentage of digestion corresponds, for a given polypeptide, to the percentage of the area under the curve in the presence of enzyme relative to the area under the control curve for the same polypeptide.

physchem [1] = format: physicochemical
Experimental: In the case of the polypeptide of amino acid sequence: […] Solubility is particularly important for IT injections because there is a limitation of the injection volume, a limit which is much greater than that for peripheral injections, and a limitation in the solvents and solutions that may be used, for example. The use of a 5% glucose solution improves the solubility of the polypeptide of amino acid sequence: […] [SEQ ID NO: 58] by bringing it to around 10 mg/ml, wherein this solution remains an isotonic solution that is compatible with an IT injection.

physchem [2] = settings: aqueous 0.9% NaCl solution
Experimental: Two weighings of 0.5 mg are made in a 1.5 ml micro tube for the polypeptide
The tubes are then vortexed for a few seconds and one drop of each polypeptide solution so obtained is placed on a glass slide for observation under an optical microscope.

Sequence of neprylysine (P08473 whole entry): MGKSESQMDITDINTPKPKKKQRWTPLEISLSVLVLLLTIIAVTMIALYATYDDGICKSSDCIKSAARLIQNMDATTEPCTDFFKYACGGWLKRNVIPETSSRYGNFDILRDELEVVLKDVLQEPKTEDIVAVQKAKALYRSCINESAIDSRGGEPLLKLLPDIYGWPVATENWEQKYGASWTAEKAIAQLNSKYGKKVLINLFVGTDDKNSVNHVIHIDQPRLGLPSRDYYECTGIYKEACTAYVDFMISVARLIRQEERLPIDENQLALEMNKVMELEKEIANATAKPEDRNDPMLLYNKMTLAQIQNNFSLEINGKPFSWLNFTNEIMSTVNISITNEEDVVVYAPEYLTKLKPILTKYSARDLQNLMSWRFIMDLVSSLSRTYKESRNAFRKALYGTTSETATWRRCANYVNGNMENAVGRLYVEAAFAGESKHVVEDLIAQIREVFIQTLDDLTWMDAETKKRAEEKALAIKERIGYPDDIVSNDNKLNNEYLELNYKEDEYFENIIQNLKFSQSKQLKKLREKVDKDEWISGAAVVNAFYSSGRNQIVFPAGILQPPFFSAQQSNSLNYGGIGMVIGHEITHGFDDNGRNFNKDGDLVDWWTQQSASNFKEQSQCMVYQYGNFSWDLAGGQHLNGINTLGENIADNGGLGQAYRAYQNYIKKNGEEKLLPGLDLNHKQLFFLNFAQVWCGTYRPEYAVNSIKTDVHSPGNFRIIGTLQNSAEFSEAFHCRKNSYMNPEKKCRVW

solubility (physchem [1]; solubility in 5% glucose solution) [µg/mL]	solubility (physchem [1]; solubility in the physiological liquid) [µg/mL]	metabolised at 0.5 h (neprylysine; isolated neprylysine enzyme, T = 30 min) [%]	solubility (physchem [2]) [µg/mL]	SMILES	Percentage of digestion (neprylysine; T = 0 min)	Area under the curve in the presence of enzyme (neprylysine; T = 0 min)	Area under the control curve (no enzyme) (neprylysine; T = 0 min)	Percentage of digestion (neprylysine; T = 30 min) [%]	Area under the curve in the presence of enzyme (neprylysine; T = 30 min)	Area under the control curve (no enzyme) (neprylysine; T = 30 min)	metabolised at 0.5 h (neprylysine; isolated enzyme neprilysin, T = 30 min) [%]
				N=C(N)NCCC[C@@H]1NC(=O)[C@H](CO)NC(=O)[C@@H](NC(=O)[C@H](CO)NC(=O)[C@H](CO)NC(=O)[C@H](Cc2c[nH]c3ccccc23)NC(=O)CNC(=O)[C@H](CO)NC(=O)[C@@H](N)Cc2c[nH]c3ccccc23)CSSC[C@@H](C(=O)NCC(=O)O)NC(=O)[C@H](CO)NC1=O [SEQ ID NO: 2, W-S-G-W-S-S-C-S-R-S-C-G] (H-WSGWSSCSRSCG-OH; disulfide 7-11)	none	3220000	3008000	8.5	3401000	3722000	8.5
~10000 (≈ 7680 µM)	1000 to 2000 (≈ 768 to 1540 µM)	28	~2000 (≈ 1540 µM)	N=C(N)NCCC[C@H](NC(=O)[C@H](CO)NC(=O)[C@H](CS)NC(=O)[C@H](CO)NC(=O)[C@H](CO)NC(=O)[C@H](Cc1c[nH]c2ccccc12)NC(=O)CNC(=O)[C@H](CO)NC(=O)[C@@H](N)Cc1c[nH]c2ccccc12)C(=O)N[C@@H](CO)C(=O)N[C@@H](CS)C(=O)NCC(=O)O [SEQ ID NO: 58, W-S-G-W-S-S-C-S-R-S-C-G] (H-WSGWSSCSRSCG-OH; N-terminus and C-terminus assumed)	none	797200	788400	28	576500	802800	
